Columns and labels:
[1] = test system: weed plants such as Sinapis alba, Chrysanthemum segetum, Avena sativa, Stellaria media, Echinochloa crus-galli, Lolium multiflorum, Setaria viridis, Abutilon …; test: Pre-emergence effect on weeds (greenhouse pot test, visual scoring); type: in vivo; details: applied pre-emergence at a rate of 0.3 kg or less of active substance per hectare; scored after 3 to 4 weeks in comparison to untreated controls
[2] = test system: weed plants such as Sinapis alba, Echinochloa crus-galli, Lolium multiflorum, Chrysanthemum segetum, Setaria viridis, Abutilon theophrasti, Amaranthus …; test: Post-emergence effect on weeds (greenhouse pot test, visual scoring); type: in vivo; details: applied post-emergence (three-leaf stage) at a rate of 0.3 kg or less of active substance per hectare; scored after about 3 to 4 weeks in comparison to untreated controls

SMILES	herbicidal action against weed plants (visual scoring of plant damage or emergence damage) [1]	herbicidal action against weed plants (effect scored visually) [2]
CCCOc1cccc(I)c1S(=O)(=O)NC(=O)n1nc(SCC)n(C)c1=O [Compound 1.237]	very good herbidical action	very good herbicidal action
CCCOc1cccc(I)c1S(=O)(=O)NC(=O)n1nc(OC)n(C2CC2)c1=O [Compound 1.238]	very good herbidical action	very good herbicidal action
CCCOc1cccc(I)c1S(=O)(=O)NC(=O)n1nc(OCC)n(C2CC2)c1=O [Compound 1.241]	very good herbidical action	very good herbicidal action
CCCOc1cccc(I)c1S(=O)(=O)NC(=O)n1nc(OCCC)n(C2CC2)c1=O [Compound 1.244]	very good herbidical action	very good herbicidal action
COc1nn(C(=O)NS(=O)(=O)c2c(I)cccc2OC(C)C)c(=O)n1C [Compound 1.251]	very good herbidical action	very good herbicidal action
CCOc1nn(C(=O)NS(=O)(=O)c2c(I)cccc2OC(C)C)c(=O)n1C [Compound 1.254]	very good herbidical action	very good herbicidal action
CCCOc1nn(C(=O)NS(=O)(=O)c2c(I)cccc2OC(C)C)c(=O)n1C [Compound 1.255]	very good herbidical action	very good herbicidal action
CC(C)Oc1cccc(I)c1S(=O)(=O)NC(=O)n1nc(OC(C)C)n(C)c1=O [Compound 1.256]	very good herbidical action	very good herbicidal action
COc1nn(C(=O)NS(=O)(=O)c2c(I)cccc2OC(C)C)c(=O)n1C1CC1 [Compound 1.258]	very good herbidical action	very good herbicidal action
CCOc1nn(C(=O)NS(=O)(=O)c2c(I)cccc2OC(C)C)c(=O)n1C1CC1 [Compound 1.261]	very good herbidical action	very good herbicidal action
CCCOc1nn(C(=O)NS(=O)(=O)c2c(I)cccc2OC(C)C)c(=O)n1C1CC1 [Compound 1.264]	very good herbidical action	very good herbicidal action
CCCCOc1cccc(I)c1S(=O)(=O)NC(=O)n1nc(OC)n(C)c1=O [Compound 1.273]	very good herbidical action	very good herbicidal action
CCCCOc1cccc(I)c1S(=O)(=O)NC(=O)n1nc(OCC)n(C)c1=O [Compound 1.274]	very good herbidical action	very good herbicidal action
CCCCOc1cccc(I)c1S(=O)(=O)NC(=O)n1nc(OCCC)n(C)c1=O [Compound 1.275]	very good herbidical action	very good herbicidal action
CCCCOc1cccc(I)c1S(=O)(=O)NC(=O)n1nc(OC(C)C)n(C)c1=O [Compound 1.276]	very good herbidical action	very good herbicidal action
CCCCOc1cccc(I)c1S(=O)(=O)NC(=O)n1nc(OC)n(C2CC2)c1=O [Compound 1.278]	very good herbidical action	very good herbicidal action
CCCCOc1cccc(I)c1S(=O)(=O)NC(=O)n1nc(OCC)n(C2CC2)c1=O [Compound 1.279]	very good herbidical action	very good herbicidal action
CCCCOc1cccc(I)c1S(=O)(=O)NC(=O)n1nc(OCCC)n(C2CC2)c1=O [Compound 1.280]	very good herbidical action	very good herbicidal action
CCC(C)Oc1cccc(I)c1S(=O)(=O)NC(=O)n1nc(OC)n(C)c1=O (stereo not shown) [Compound 1.281]	very good herbidical action	very good herbicidal action

SMILES	herbicidal action against weed plants (visual scoring of plant damage or emergence damage) [1]	herbicidal action against weed plants (effect scored visually) [2]
CCC(C)Oc1cccc(I)c1S(=O)(=O)NC(=O)n1nc(OC)n(C2CC2)c1=O (stereo not shown) [Compound 1.286]	very good herbidical action	very good herbicidal action
COc1nn(C(=O)NS(=O)(=O)c2c(I)cccc2OCC(C)C)c(=O)n1C [Compound 1.289]	very good herbidical action	very good herbicidal action
CCOc1nn(C(=O)NS(=O)(=O)c2c(I)cccc2OCC(C)C)c(=O)n1C [Compound 1.290]	very good herbidical action	very good herbicidal action
COc1nn(C(=O)NS(=O)(=O)c2c(I)cccc2OCC(C)C)c(=O)n1C1CC1 [Compound 1.294]	very good herbidical action	very good herbicidal action
CCOc1nn(C(=O)NS(=O)(=O)c2c(I)cccc2OCC(C)C)c(=O)n1C1CC1 [Compound 1.295]	very good herbidical action	very good herbicidal action
COc1nn(C(=O)NS(=O)(=O)c2c(I)cccc2OCC2CC2)c(=O)n1C [Compound 1.346]	very good herbidical action	very good herbicidal action
CCOc1nn(C(=O)NS(=O)(=O)c2c(I)cccc2OCC2CC2)c(=O)n1C [Compound 1.349]	very good herbidical action	very good herbicidal action
CCCOc1nn(C(=O)NS(=O)(=O)c2c(I)cccc2OCC2CC2)c(=O)n1C [Compound 1.350]	very good herbidical action	very good herbicidal action
COc1nn(C(=O)NS(=O)(=O)c2c(I)cccc2OCC2CC2)c(=O)n1C1CC1 [Compound 1.353]	very good herbidical action	very good herbicidal action
CCOc1nn(C(=O)NS(=O)(=O)c2c(I)cccc2OCC2CC2)c(=O)n1C1CC1 [Compound 1.356]	very good herbidical action	very good herbicidal action
CCCOc1nn(C(=O)NS(=O)(=O)c2c(I)cccc2OCC2CC2)c(=O)n1C1CC1 [Compound 1.359]	very good herbidical action	very good herbicidal action
COc1nn(C(=O)NS(=O)(=O)c2c(I)cccc2OC(F)(F)F)c(=O)n1C [Compound 1.440]	very good herbidical action	very good herbicidal action
CCOc1nn(C(=O)NS(=O)(=O)c2c(I)cccc2OC(F)(F)F)c(=O)n1C [Compound 1.443]	very good herbidical action	very good herbicidal action
CCCOc1nn(C(=O)NS(=O)(=O)c2c(I)cccc2OC(F)(F)F)c(=O)n1C [Compound 1.444]	very good herbidical action	very good herbicidal action
COc1nn(C(=O)NS(=O)(=O)c2c(I)cccc2OC(F)(F)F)c(=O)n1C1CC1 [Compound 1.447]	very good herbidical action	very good herbicidal action
CCOc1nn(C(=O)NS(=O)(=O)c2c(I)cccc2OC(F)(F)F)c(=O)n1C1CC1 [Compound 1.450]	very good herbidical action	very good herbicidal action
CCCOc1nn(C(=O)NS(=O)(=O)c2c(I)cccc2OC(F)(F)F)c(=O)n1C1CC1 [Compound 1.453]	very good herbidical action	very good herbicidal action
COc1nn(C(=O)NS(=O)(=O)c2c(I)cccc2OC(F)F)c(=O)n1C [Compound 1.460]	very good herbidical action	very good herbicidal action
CCOc1nn(C(=O)NS(=O)(=O)c2c(I)cccc2OC(F)F)c(=O)n1C [Compound 1.463]	very good herbidical action	very good herbicidal action
